Patent US20220125051A1, “PRE-HARVEST DESICCATION METHOD” (SYNGENTA CROP PROTECTION AG, priority 2019, published 2022)
Where two headings read alike, the source gives them in different places.

What was measured:
Experiment in all cases: Post-emergence efficacy, Method A
Assay type in all cases: in vivo
Setaria faberi (SETFA) = settings: evaluated after 13 days; for pest or weed control at 500 g/ha: Setaria faberi, post-emergence, 312 h
How it was run: (§1)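 Sow in standard soil; grow 14 d under glasshouse control (24/16 °C, 14 h light, 65% humidity). Spray post-emergence with compound formulated in acetone/IF50, diluted in Empicol ESC70 (0.25% or 1%) + 1% ammonium sulphate. Return to glasshouse, water twice daily, score at 13 d on a 0–100 damage scale.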

[1] = test system: Euphorbia heterophylla (EPHHL); settings: evaluated after 13 days; for pest or weed control at 500 g/ha: Euphorbia heterophylla, post-emergence, 312 h
How it was run: as §1

Eleusine indica (ELEIN) = settings: evaluated after 13 days; for pest or weed control at 500 g/ha: Eleusine indica, post-emergence, 312 h
How it was run: as §1

[2] = test system: Ipomoea hederacea (IPOHE); settings: evaluated after 13 days; for pest or weed control at 500 g/ha: Ipomoea hederacea, post-emergence, 312 h
How it was run: as §1

Lolium perenne (LOLPE) = settings: evaluated after 13 days; for pest or weed control at 500 g/ha: Lolium perenne, post-emergence, 312 h
How it was run: as §1

[3] = test system: Echinochloa crus-galli (ECHCG); settings: evaluated after 13 days; for pest or weed control at 500 g/ha: Echinochloa crus-galli, post-emergence, 312 h
How it was run: as §1

[4] = test system: Chenopodium album (CHEAL); settings: evaluated after 13 days; for pest or weed control at 500 g/ha: Chenopodium album, post-emergence, 312 h
How it was run: as §1

[5] = test system: Amaranthus palmeri (AMAPA); settings: evaluated after 13 days; for pest or weed control at 500 g/ha: Amaranthus palmeri, post-emergence, 312 h
How it was run: as §1

[6] = test system: Digitaria sanguinalis (DIGSA); settings: evaluated after 13 days; for pest or weed control at 500 g/ha: Digitaria sanguinalis, post-emergence, 312 h
How it was run: as §1

[7] = Application rate 500 g/Ha, 100=total damage to plant, 0=no damage to plant, read-out: Control of weed species after post-emergence application, SETFA
[8] = Application rate 500 g/Ha, 100=total damage to plant, 0=no damage to plant, read-out: Control of weed species after post-emergence application, EPHHL
[9] = Application rate 500 g/Ha, 100=total damage to plant, 0=no damage to plant, read-out: Control of weed species after post-emergence application, ELEIN
[10] = Application rate 500 g/Ha, 100=total damage to plant, 0=no damage to plant, read-out: Control of weed species after post-emergence application, IPOHE
[11] = Application rate 500 g/Ha, 100=total damage to plant, 0=no damage to plant, read-out: Control of weed species after post-emergence application, LOLPE
[12] = Application rate 500 g/Ha, 100=total damage to plant, 0=no damage to plant, read-out: Control of weed species after post-emergence application, ECHCG
[13] = Application rate 500 g/Ha, 100=total damage to plant, 0=no damage to plant, read-out: Control of weed species after post-emergence application, CHEAL
[14] = Application rate 500 g/Ha, 100=total damage to plant, 0=no damage to plant, read-out: Control of weed species after post-emergence application, AMAPA
[15] = Application rate 500 g/Ha, 100=total damage to plant, 0=no damage to plant, read-out: Control of weed species after post-emergence application, DIGSA
[16] = Application Rate 500 g/Ha, Method A, read-out: Control of weed species after post-emergence application, SETFA (100=total damage to plant; 0=no damage to plant)
[17] = Application Rate 500 g/Ha, Method A, read-out: Control of weed species after post-emergence application, EPHHL (100=total damage to plant; 0=no damage to plant)
[18] = Application Rate 500 g/Ha, Method A, read-out: Control of weed species after post-emergence application, ELEIN (100=total damage to plant; 0=no damage to plant)
[19] = Application Rate 500 g/Ha, Method A, read-out: Control of weed species after post-emergence application, IPOHE (100=total damage to plant; 0=no damage to plant)
[20] = Application Rate 500 g/Ha, Method A, read-out: Control of weed species after post-emergence application, LOLPE (100=total damage to plant; 0=no damage to plant)
[21] = Application Rate 500 g/Ha, Method A, read-out: Control of weed species after post-emergence application, ECHCG (100=total damage to plant; 0=no damage to plant)
[22] = Application Rate 500 g/Ha, Method A, read-out: Control of weed species after post-emergence application, CHEAL (100=total damage to plant; 0=no damage to plant)
[23] = Application Rate 500 g/Ha, Method A, read-out: Control of weed species after post-emergence application, AMAPA (100=total damage to plant; 0=no damage to plant)
[24] = Application Rate 500 g/Ha, Method A, read-out: Control of weed species after post-emergence application, DIGSA (100=total damage to plant; 0=no damage to plant)
[25] = Application rate 500 g/Ha, 100=total damage to plant, 0=no damage to plant

## Cc1nc(-c2cc[n+](CCC(=O)[O-])nc2)ncc1Cl [Compound A100]
Setaria faberi (SETFA); [7]
  pest or weed control at 500 g/ha: 20%
[1]; [8]
  pest or weed control at 500 g/ha: 90%
Eleusine indica (ELEIN); [9]
  pest or weed control at 500 g/ha: 60%
[2]; [10]
  pest or weed control at 500 g/ha: 20%
Lolium perenne (LOLPE); [11]
  pest or weed control at 500 g/ha: 10%
[3]; [12]
  pest or weed control at 500 g/ha: 70%
[4]; [13]
  pest or weed control at 500 g/ha: 60%
[5]; [14]
  pest or weed control at 500 g/ha: 60%
[6]; [15]
  pest or weed control at 500 g/ha: 40%

## O=C(O)CC[n+]1ccc(-c2ccc(C(F)(F)F)cn2)cn1 [Compound A200]
Setaria faberi (SETFA); [16]
  pest or weed control at 500 g/ha: 50%
[1]; [17]
  pest or weed control at 500 g/ha: 70%
Eleusine indica (ELEIN); [18]
  pest or weed control at 500 g/ha: 30%
[2]; [19]
  pest or weed control at 500 g/ha: 10%
Lolium perenne (LOLPE); [20]
  pest or weed control at 500 g/ha: 40%
[3]; [21]
  pest or weed control at 500 g/ha: 40%
[4]; [22]
  pest or weed control at 500 g/ha: 70%
[5]; [23]
  pest or weed control at 500 g/ha: 100%
[6]; [24]
  pest or weed control at 500 g/ha: 40%

## O=P(O)(O)CC[n+]1ccc(-c2ncccn2)cn1 [Compound A198]
Setaria faberi (SETFA); [16]
  pest or weed control at 500 g/ha: 90%
[1]; [17]
  pest or weed control at 500 g/ha: 100%
Eleusine indica (ELEIN); [18]
  pest or weed control at 500 g/ha: 80%
[2]; [19]
  pest or weed control at 500 g/ha: 50%
Lolium perenne (LOLPE); [20]
  pest or weed control at 500 g/ha: 50%
[3]; [21]
  pest or weed control at 500 g/ha: 80%
[4]; [22]
  pest or weed control at 500 g/ha: 100%
[5]; [23]
  pest or weed control at 500 g/ha: 100%
[6]; [24]
  pest or weed control at 500 g/ha: 80%

## Cc1cccnc1-c1cc[n+](CCC(=O)[O-])nc1 [Compound A65]
Setaria faberi (SETFA); [7]
  pest or weed control at 500 g/ha: 40%
[1]; [8]
  pest or weed control at 500 g/ha: 20%
Eleusine indica (ELEIN); [9]
  pest or weed control at 500 g/ha: 40%
[2]; [10]
  pest or weed control at 500 g/ha: 10%
Lolium perenne (LOLPE); [11]
  pest or weed control at 500 g/ha: 10%
[3]; [12]
  pest or weed control at 500 g/ha: 30%
[4]; [13]
  pest or weed control at 500 g/ha: 10%
[5]; [14]
  pest or weed control at 500 g/ha: 40%
[6]; [15]
  pest or weed control at 500 g/ha: 30%

## N#Cc1cnc(-c2cc[n+](CCS(=O)(=O)O)nc2)nc1 [Compound A25]
Setaria faberi (SETFA); [25]
  Control of weed species after post-emergence application, SETFA: 60
[1]; [25]
  Control of weed species after post-emergence application, EPHHL: 40
Eleusine indica (ELEIN); [25]
  Control of weed species after post-emergence application, ELEIN: 50
[2]; [25]
  Control of weed species after post-emergence application, IPOHE: 50
Lolium perenne (LOLPE); [25]
  Control of weed species after post-emergence application, LOLPE: 40
[3]; [25]
  Control of weed species after post-emergence application, ECHCG: 70
[4]; [25]
  Control of weed species after post-emergence application, CHEAL: 60
[5]; [25]
  Control of weed species after post-emergence application, AMAPA: 100
[6]; [25]
  Control of weed species after post-emergence application, DIGSA: 50

## O=S(=O)([O-])CC[n+]1ccc(-c2ccc(Cl)cn2)cn1 [Compound A69]
Setaria faberi (SETFA); [7]
  pest or weed control at 500 g/ha: 40%
[1]; [8]
  pest or weed control at 500 g/ha: 50%
Eleusine indica (ELEIN); [9]
  pest or weed control at 500 g/ha: 60%
[2]; [10]
  pest or weed control at 500 g/ha: 40%
Lolium perenne (LOLPE); [11]
  pest or weed control at 500 g/ha: 50%
[3]; [12]
  pest or weed control at 500 g/ha: 40%
[4]; [13]
  pest or weed control at 500 g/ha: 60%
[5]; [14]
  pest or weed control at 500 g/ha: 100%
[6]; [15]
  pest or weed control at 500 g/ha: 50%

## CN(C)C(=O)c1cnc(-c2cc[n+](CCC(=O)[O-])nc2)nc1 [Compound A92]
Setaria faberi (SETFA); [7]
  pest or weed control at 500 g/ha: 90%
[1]; [8]
  pest or weed control at 500 g/ha: 70%
Eleusine indica (ELEIN); [9]
  pest or weed control at 500 g/ha: 90%
[2]; [10]
  pest or weed control at 500 g/ha: 100%
Lolium perenne (LOLPE); [11]
  pest or weed control at 500 g/ha: 50%
[3]; [12]
  pest or weed control at 500 g/ha: 80%
[4]; [13]
  pest or weed control at 500 g/ha: 90%
[5]; [14]
  pest or weed control at 500 g/ha: 90%
[6]; [15]
  pest or weed control at 500 g/ha: 60%

## CCOP(=O)(CC[n+]1ccc(-c2ncccn2)cn1)OCC [Compound A124, 1-(2-diethoxyphosphorylethyl)-4-pyrimidin-2-yl-pyridazin-1-ium]
Setaria faberi (SETFA); [7]
  pest or weed control at 500 g/ha: 20%
[1]; [8]
  pest or weed control at 500 g/ha: 0%
Eleusine indica (ELEIN); [9]
  pest or weed control at 500 g/ha: 0%
[2]; [10]
  pest or weed control at 500 g/ha: 0%
Lolium perenne (LOLPE); [11]
  pest or weed control at 500 g/ha: 0%
[3]; [12]
  pest or weed control at 500 g/ha: 0%
[4]; [13]
  pest or weed control at 500 g/ha: 0%
[5]; [14]
  pest or weed control at 500 g/ha: 0%
[6]; [15]
  pest or weed control at 500 g/ha: 10%

## Cc1ccc(-c2cc[n+](CCS(=O)(=O)[O-])nc2)nc1 [Compound A155]
Setaria faberi (SETFA); [16]
  pest or weed control at 500 g/ha: 40%
[1]; [17]
  pest or weed control at 500 g/ha: 30%
Eleusine indica (ELEIN); [18]
  pest or weed control at 500 g/ha: 30%
[2]; [19]
  pest or weed control at 500 g/ha: 20%
Lolium perenne (LOLPE); [20]
  pest or weed control at 500 g/ha: 50%
[3]; [21]
  pest or weed control at 500 g/ha: 40%
[4]; [22]
  pest or weed control at 500 g/ha: 10%
[5]; [23]
  pest or weed control at 500 g/ha: 20%
[6]; [24]
  pest or weed control at 500 g/ha: 50%
